Measured values: patent US20150258106A1, “METHODS FOR ACUTE AND LONG-TERM TREATMENT OF SUBSTANCE ABUSE” (DEMERX, INC., priority 2014, published 2015)
“Also recorded” adds a separate entry of the source. Like-named read-outs stand apart in the source and are kept apart here.

What was measured:
[1] = tested on: healthy, drug-free male volunteers; experiment: Pupillometry (pupillary miosis) in healthy volunteers; format: in vivo, human
Description: (§1) Pulse oximetry and capnography data were collected continuously using a GE Carescape B650 monitoring system from 2 hours prior to dosing and until six hours after dosing, and thereafter at 12, 24, 48 and 72 hours post-dosing. […] Pupillary miosis was assessed by pupillometry.
(§2) Summary statistics (means, standard deviations, and coefficients of variation) were determined for each dose group for safety laboratory test data, ECG and pharmacokinetic parameters, and pharmacodynamic variables. Categorical variables were analysed using counts and percentages. Dose-proportionality of AUC and Cmax was assessed using linear regression. The effect of dose on pharmacodynamic parameter values over time was assessed using two-factor analysis of variance (ANOVA). Pairwise comparisons (with Tukey-Kramer adjustment) between each dose group to the placebo were conducted at each time point using the least squares estimates obtained from the ANOVA, using SAS Proc Mixed (SAS ver 6.0).

[2] = Pharmacokinetics in opioid-dependent patients (Phase IB study); format: in vivo, human; settings: for AUC(0-t) / AUC / half-life / Tmax / Vd/F / Cmax: human, serum, opioid-dependent patients
Description: (§3) Three cohorts of nine (9) subjects (6 administered noribogaine and 3 administered placebo in each cohort) were evaluated for tolerability, pharmacokinetics, and efficacy. Cohort 1 received a single dose of 60 mg noribogaine or placebo. Cohort 2 received a single dose of 120 mg noribogaine or placebo. Cohort 3 received a single dose of 180 mg noribogaine or placebo. […] Headaches were frequent in the placebo and 60 mg noribogaine treatment groups, but were attenuated in the 120 mg and 180 mg dose groups.

[3] = tested on: opioid-dependent participants; experiment: Time to resumption of opioid substitution treatment (OST) in opioid-dependent participants; format: in vivo, human
Description: The efficacy of noribogaine in humans was evaluated in opioid-dependent participants in a randomized, placebo-controlled, double-blind trial. […] See U.S. application Ser. No. 14/214,157, filed Mar. 14, 2014 and Ser. No. 14/346,655, filed Mar. 21, 2014, which are incorporated herein by reference in their entireties.
as §3

[4] = tested on: healthy, drug-free male volunteers; experiment: Cold pressor test (analgesic effect) in healthy volunteers; format: in vivo, human
Description: as §2
Analgesic effect was assessed based on duration of hand immersion in ice water and on visual analog scale (VAS) pain scores upon hand removal from the water bath.
(§4) Safety and tolerability of noribogaine were tested in the group of volunteers from Example 1. […] Safety evaluations included clinical monitoring, recording of adverse events (AEs), safety laboratory tests, vital signs, ECG telemetry from −2 h to 6 h after dosing, and 12-lead electrocardiograms (ECGs) up to 216 hours post-dosing.

[5] = tested on: healthy, drug-free male volunteers; experiment: Safety and tolerability of noribogaine in healthy humans (adverse events, vital signs, ECG); format: in vivo, human
Description: as §1, §4

[6] = Pharmacokinetics of noribogaine in healthy volunteers, ascending single oral dose (plasma noribogaine and noribogaine glucuronide); settings: for CL/F: healthy male volunteers, fasted, n = 6, mean (SD); for mean AUC/24 hr / time after administration at which mean Cmax was observed / mean AUC/24: fasting
[7] = after adjusting for baseline differences, p>0.9
[8] = healthy volunteers, 3-60 mg single oral dose
[9] = single dose of 3 mg noribogaine free base
[10] = single dose of 10 mg noribogaine free base
[11] = single dose of 30 mg noribogaine free base
[12] = single dose of 60 mg noribogaine free base

**Q.** Which results are given for `CCC1CC2CC3c4[nH]c5ccc(O)cc5c4CCN(C2)C13` (centres unmarked) [Noribogaine]?
**A.** pupil diameter, each dose group compared with placebo by ANOVA [1, 7]: no statistically significant differences; pupillary constriction [1, 8]: no evidence of pupillary constriction; AUC(0-t) ([2]; 60 mg, Cohort 1 (60 mg), mean ± SD, read-out: AUC(0-T)): 2020 ± 614 ng·h/mL; AUC ([2]; 60 mg, Cohort 1 (60 mg), mean ± SD, read-out: AUC(0-¥)): 2060 ± 609 ng·h/mL; half-life ([2]; 60 mg, Cohort 1 (60 mg), mean ± SD, read-out: Half-life (converted)): 29.3 ± 7.28 h; Tmax ([2]; 60 mg, Cohort 1 (60 mg), mean ± SD, read-out: Tmax): 3.59 ± 0.92 h; Vd/F ([2]; 60 mg, Cohort 1 (60 mg), mean ± SD, read-out: Vd/F): 1440 ± 854 L; AUC(0-t) ([2]; 60 mg, Cohort 1 (60 mg), range, read-out: AUC(0-T) [range]): 1090 to 2530 ng·h/mL; AUC ([2]; 60 mg, Cohort 1 (60 mg), range, read-out: AUC(0-¥) [range]): 1120 to 2550 ng·h/mL; half-life ([2]; 60 mg, Cohort 1 (60 mg), range, read-out: Half-life [range]): 18.3 to 37.3 h; Tmax ([2]; 60 mg, Cohort 1 (60 mg), range, read-out: Tmax [range]): 2.5 to 5 h; Vd/F ([2]; 60 mg, Cohort 1 (60 mg), range, read-out: Vd/F [range]): 620 to 2770 L; Cmax ([2]; 60 mg, Cohort 1 (60 mg), mean ± SD, read-out: Cmax): 81.6 ± 23.8 ng/mL; Cmax ([2]; 60 mg, Cohort 1 (60 mg), range, read-out: Cmax [range]): 41.3 to 113 ng/mL; AUC(0-t) ([2]; 120 mg, Cohort 2 (120 mg), mean ± SD, read-out: AUC(0-T)): 3230 ± 1540 ng·h/mL; AUC ([2]; 120 mg, Cohort 2 (120 mg), mean ± SD, read-out: AUC(0-¥)): 3280 ± 1580 ng·h/mL; half-life ([2]; 120 mg, Cohort 2 (120 mg), mean ± SD, read-out: Half-life (converted)): 30.4 ± 9.14 h; Tmax ([2]; 120 mg, Cohort 2 (120 mg), mean ± SD, read-out: Tmax): 2.99 ± 1.23 h; Vd/F ([2]; 120 mg, Cohort 2 (120 mg), mean ± SD, read-out: Vd/F): 2110 ± 1640 L; AUC(0-t) ([2]; 120 mg, Cohort 2 (120 mg), range, read-out: AUC(0-T) [range]): 1560 to 5640 ng·h/mL; AUC ([2]; 120 mg, Cohort 2 (120 mg), range, read-out: AUC(0-¥) [range]): 1600 to 5770 ng·h/mL; half-life ([2]; 120 mg, Cohort 2 (120 mg), range, read-out: Half-life [range]): 21.9 to 48.3 h; Tmax ([2]; 120 mg, Cohort 2 (120 mg), range, read-out: Tmax [range]): 0.98 to 4.02 h; Vd/F ([2]; 120 mg, Cohort 2 (120 mg), range, read-out: Vd/F [range]): 824 to 5240 L; Cmax ([2]; 120 mg, Cohort 2 (120 mg), mean ± SD, read-out: Cmax): 173 ± 30.7 ng/mL; Cmax ([2]; 120 mg, Cohort 2 (120 mg), range, read-out: Cmax [range]): 139 to 230 ng/mL; AUC(0-t) ([2]; 180 mg, Cohort 3 (180 mg), mean ± SD, read-out: AUC(0-T)): 6520 ± 2910 ng·h/mL; AUC ([2]; 180 mg, Cohort 3 (180 mg), mean ± SD, read-out: AUC(0-¥)): 6890 ± 3490 ng·h/mL; half-life ([2]; 180 mg, Cohort 3 (180 mg), mean ± SD, read-out: Half-life (converted)): 23.9 ± 5.54 h; Tmax ([2]; 180 mg, Cohort 3 (180 mg), mean ± SD, read-out: Tmax): 4.41 ± 1.8 h; Vd/F ([2]; 180 mg, Cohort 3 (180 mg), mean ± SD, read-out: Vd/F): 1030 ± 365 L; AUC(0-t) ([2]; 180 mg, Cohort 3 (180 mg), range, read-out: AUC(0-T) [range]): 3720 to 10400 ng·h/mL; AUC ([2]; 180 mg, Cohort 3 (180 mg), range, read-out: AUC(0-¥) [range]): 3730 to 12300 ng·h/mL; half-life ([2]; 180 mg, Cohort 3 (180 mg), range, read-out: Half-life [range]): 19.3 to 34.9 h; Tmax ([2]; 180 mg, Cohort 3 (180 mg), range, read-out: Tmax [range]): 3 to 8 h; Vd/F ([2]; 180 mg, Cohort 3 (180 mg), range, read-out: Vd/F [range]): 581 to 1610 L; Cmax ([2]; 180 mg, Cohort 3 (180 mg), mean ± SD, read-out: Cmax): 268 ± 46.9 ng/mL; Cmax ([2]; 180 mg, Cohort 3 (180 mg), range, read-out: Cmax [range]): 205 to 338 ng/mL; Maximum serum concentration of noribogaine (Cmax) versus dose ([2]; opioid-dependent patients, 60, 120, 180 mg): increased in a dose-dependent manner; average time to resumption of opioids ([3]; opioid-dependent patients, single 120 mg dose): greater than 20 hours; Time to resumption of OST compared with untreated patients or 60 mg noribogaine ([3]; single 180 mg dose): longer than untreated patients; VAS pain scores upon hand removal, each dose group compared with placebo by ANOVA ([4]; after adjusting for baseline differences, p=0.17): no statistically significant differences; duration of hand immersion in ice water, each dose group compared with placebo by ANOVA [4, 7]: no statistically significant differences; analgesic effect in the cold pressor test [4, 8]: no analgesic effect; adverse events, Mild ([5]; healthy volunteers, 3 mg dose): Back pain; also recorded: Dizziness; also recorded: Epistaxis; also recorded: Headache; adverse events, Moderate ([5]; healthy volunteers, 3 mg dose): Headache; number of adverse events reported ([5]; healthy volunteers, 3 mg dose group): five adverse events were reported by two subjects; adverse events, Mild ([5]; healthy volunteers, 10 mg dose): Headache; number of adverse events reported ([5]; healthy volunteers, 10 mg dose group, single subject): one adverse event; adverse events, Mild ([5]; healthy volunteers, 30 mg dose): Headache; number of adverse events reported ([5]; healthy volunteers, 30 mg dose group, single subject): one adverse event; oximetry, capnography, respiratory rate ([5]; healthy volunteers, 3-60 mg): no changes in oximetry or capnography, or changes in respiratory rate; vital signs and safety laboratory tests ([5]; healthy volunteers, 3-60 mg): no changes in vital signs or safety laboratory tests of note; intensity of adverse events ([5]; healthy volunteers, all groups, all resolved prior to study completion): mild-moderate intensity; QTcF values ([5]; healthy volunteers, at any time): ≤ 500 ms; single increase in QTcF ([5]; one subject dosed with 10 mg, at 24 hours post-dosing): > 60 ms; CL/F ([6]; single oral 3 mg dose, plasma): 41.4 (7.0) L/h; CL/F ([6]; single oral 10 mg dose, plasma): 42.3 (12.0) L/h; CL/F ([6]; single oral 30 mg dose, plasma): 46.9 (16.4) L/h; CL/F ([6]; single oral 60 mg dose, plasma): 34.0 (11.4) L/h; Cmax and AUC versus dose ([6]; healthy volunteers, 3-60 mg single oral doses): increased linearly with dose; time of peak concentrations after oral dosing ([6]; healthy volunteers, across dose groups 3-60 mg): 2 to 3 h; absorption ([6]; healthy volunteers, oral dosing): rapidly absorbed; Vd ([6]; male, human, plasma, oral): 1420 to 3090 L; half-life ([6]; male, human, plasma, oral): 28 to 50 h; AUC(0-inf) ([6]; male, human, plasma, po, 3 mg): 74.2 ng·h/mL; AUC(0-t) ([6]; male, human, plasma, po, 3 mg): 72.2 ng·h/mL; Cmax ([6]; male, human, plasma, po, 3 mg): 5.2 ng/mL; Tmax ([6]; male, human, plasma, po, 3 mg): 1.9 h; Vd/F ([6]; male, human, plasma, po, 3 mg): 2490 L; half-life ([6]; male, human, plasma, po, 3 mg): 40.9 h; AUC(0-inf) ([6]; male, human, plasma, po, 10 mg): 254 ng·h/mL; AUC(0-t) ([6]; male, human, plasma, po, 10 mg): 251 ng·h/mL; Cmax ([6]; male, human, plasma, po, 10 mg): 14.5 ng/mL; Tmax ([6]; male, human, plasma, po, 10 mg): 2.9 h; Vd/F ([6]; male, human, plasma, po, 10 mg): 3090 L; half-life ([6]; male, human, plasma, po, 10 mg): 49.2 h; AUC(0-inf) ([6]; male, human, plasma, po, 30 mg): 700 ng·h/mL; AUC(0-t) ([6]; male, human, plasma, po, 30 mg): 678 ng·h/mL; Cmax ([6]; male, human, plasma, po, 30 mg): 55.9 ng/mL; Tmax ([6]; male, human, plasma, po, 30 mg): 1.8 h; Vd/F ([6]; male, human, plasma, po, 30 mg): 1850 L; half-life ([6]; male, human, plasma, po, 30 mg): 27.6 h; AUC(0-inf) ([6]; male, human, plasma, po, 60 mg): 1960 ng·h/mL; AUC(0-t) ([6]; male, human, plasma, po, 60 mg): 1940 ng·h/mL; Cmax ([6]; male, human, plasma, po, 60 mg): 116 ng/mL; Tmax ([6]; male, human, plasma, po, 60 mg): 2.4 h; Vd/F ([6]; male, human, plasma, po, 60 mg): 1420 L; half-life ([6]; male, human, plasma, po, 60 mg): 29.1 h; Cmax ([6]; male, human, serum, oral, 3 mg): 5.2 ng/mL; Cmax ([6]; male, human, serum, oral, 10 mg): 14.5 ng/mL; Cmax ([6]; male, human, serum, oral, 30 mg): 55.9 ng/mL; Cmax ([6]; male, human, serum, oral, 60 mg): 116 ng/mL; mean AUC/24 hr [6, 9]: 3.1 ng/mL; time after administration at which mean Cmax was observed [6, 9]: 1.9 h; mean AUC/24 hr [6, 10]: 10.6 ng/mL; time after administration at which mean Cmax was observed [6, 10]: 2.9 h; mean AUC/24 [6, 11]: 29.2 ng/mL; time after administration at which mean Cmax was observed [6, 11]: 1.75 h; mean AUC/24 [6, 12]: 61 ng/mL; time after administration at which mean Cmax was observed [6, 12]: 1.75 h
